Data reported in US20240150377A1, “MODULATORS OF CYSTIC FIBROSIS TRANSMEMBRANE CONDUCTANCE REGULATOR” (VERTEX PHARMACEUTICALS INCORPORATED, priority 2020, published 2024).
Like-named read-outs stand apart in the source and are kept apart here.

Biological target: T1, CFTR (Homo sapiens, UniProt P13569, DEL508-508)
T1 construct: endogenous in cells; host or cells: primary human bronchial epithelial cells from CF subjects (F508del/MF-HBE), differentiated at air-liquid interface
Assay: HBE assay: Ussing chamber assay of CFTR-mediated short-circuit currents
Format: cell-based
Settings: for EC50: read-out: HBE EC50
Summary of the method: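 CFTR-mediated Isc (μA/cm²) equals the peak response to apical 20 μM forskolin minus the residual after a 20 μM each BPO/GlyH-101/CFTR inhibitor 172 cocktail, recorded in Ussing chambers at Vhold 0 mV, 37 °C, pH 7.4, with 30 μM apical amiloride. Cells were F508del/MF HBE cultures preincubated 18-24 h with corrector (concentration range or 10 μM) plus 1 μM ivacaftor in 20% human serum.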

[1] = Table 11, read-out: HBE Max Activity (%)
[2] = Table 11, read-out: HBE Activity at 10 μM (%)
[3] = Table 10, read-out: HBE activity at 10 (μM) (%)
[4] = Table 10, read-out: HBE Max activity (%)

T1 sequence (P13569 with tags, fused parts or gaps DEL508-508): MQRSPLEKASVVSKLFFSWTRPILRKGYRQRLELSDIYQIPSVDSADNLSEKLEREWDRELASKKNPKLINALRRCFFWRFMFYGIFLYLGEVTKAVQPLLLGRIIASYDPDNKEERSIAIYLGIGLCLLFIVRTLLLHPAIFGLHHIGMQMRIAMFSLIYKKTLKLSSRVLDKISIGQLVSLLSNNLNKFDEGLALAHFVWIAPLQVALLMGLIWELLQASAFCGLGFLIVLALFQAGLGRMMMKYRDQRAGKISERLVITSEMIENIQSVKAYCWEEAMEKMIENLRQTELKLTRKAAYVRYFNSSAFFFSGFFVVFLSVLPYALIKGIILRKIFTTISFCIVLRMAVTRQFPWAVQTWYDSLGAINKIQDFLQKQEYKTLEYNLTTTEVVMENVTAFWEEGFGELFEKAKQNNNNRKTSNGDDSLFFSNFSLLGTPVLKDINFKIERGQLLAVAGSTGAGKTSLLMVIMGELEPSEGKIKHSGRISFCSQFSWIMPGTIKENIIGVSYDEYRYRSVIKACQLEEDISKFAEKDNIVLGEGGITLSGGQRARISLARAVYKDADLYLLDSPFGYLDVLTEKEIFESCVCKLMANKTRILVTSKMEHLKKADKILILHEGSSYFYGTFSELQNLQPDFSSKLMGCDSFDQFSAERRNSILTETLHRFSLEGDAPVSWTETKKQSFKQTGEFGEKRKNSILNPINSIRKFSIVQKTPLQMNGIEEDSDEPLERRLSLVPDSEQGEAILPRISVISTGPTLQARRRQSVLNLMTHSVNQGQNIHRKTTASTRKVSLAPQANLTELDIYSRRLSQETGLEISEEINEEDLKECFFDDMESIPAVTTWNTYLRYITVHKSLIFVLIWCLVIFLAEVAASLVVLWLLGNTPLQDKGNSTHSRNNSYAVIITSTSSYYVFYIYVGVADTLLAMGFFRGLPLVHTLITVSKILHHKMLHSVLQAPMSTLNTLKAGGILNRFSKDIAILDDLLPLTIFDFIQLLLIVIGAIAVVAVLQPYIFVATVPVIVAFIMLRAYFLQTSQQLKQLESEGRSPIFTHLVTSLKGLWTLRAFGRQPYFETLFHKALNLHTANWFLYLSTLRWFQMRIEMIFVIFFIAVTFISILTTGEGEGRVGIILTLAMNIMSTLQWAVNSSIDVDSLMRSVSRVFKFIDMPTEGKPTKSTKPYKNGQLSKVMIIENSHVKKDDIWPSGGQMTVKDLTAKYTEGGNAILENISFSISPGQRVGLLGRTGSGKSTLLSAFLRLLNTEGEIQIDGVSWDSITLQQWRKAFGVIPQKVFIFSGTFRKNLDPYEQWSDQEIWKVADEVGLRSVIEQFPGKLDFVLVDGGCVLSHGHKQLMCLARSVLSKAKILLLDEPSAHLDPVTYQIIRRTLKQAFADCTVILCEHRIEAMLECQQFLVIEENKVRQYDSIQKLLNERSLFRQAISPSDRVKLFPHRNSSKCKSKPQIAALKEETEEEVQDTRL

| SMILES | EC50 (Table 11) | Emax [1] | other results |
| --- | --- | --- | --- |
| Cc1cccc(C)c1-c1cc2nc(n1)NS(=O)(=O)c1cccc(c1)C(=O)N(Cc1cccc(N3CCC[C@@H]3C)n1)[C@H](CC(C)(C)C)CO2 [Compound 710] | < 1 µM | > 60% | – |
| CCN(CC)c1cccc(CN2C(=O)c3cccc(c3)S(=O)(=O)Nc3nc(cc(-c4c(C)cccc4C)n3)OC[C@H]2CC(C)(C)C)n1 [Compound 711] | 1 to 3 µM | > 60% | – |
| Cc1cccc(C)c1-c1cc2nc(n1)NS(=O)(=O)c1cccc(c1)C(=O)N(CC1CN(CC(C)(C)C)CCO1)[C@H](CC(C)(C)C)CO2 (stereo partly drawn) [Compound 712] | < 1 µM | > 60% | – |
| Cc1cccc(C)c1-c1cc2nc(n1)NS(=O)(=O)c1cccc(c1)C(=O)N(CC1CN(C(=O)C(C)(C)C)CCO1)[C@H](CC(C)(C)C)CO2 (stereo partly drawn) [Compound 714] | < 1 µM | > 60% | – |
| CCN(C)c1cccc(CN2C(=O)c3cccc(c3)S(=O)(=O)Nc3nc(cc(-c4c(C)cccc4C)n3)OC[C@H]2CC(C)(C)C)n1 [Compound 715] | 1 to 3 µM | > 60% | – |
| Cc1cccc(C)c1-c1cc2nc(n1)NS(=O)(=O)c1cccc(c1)C(=O)N(Cc1ncc(N3C[C@H](C)C[C@@H](C)C3)cn1)[C@H](CC(C)(C)C)CO2 [Compound 716] | 3 to 30 µM | > 60% | – |
| Cc1cccc(C)c1-c1cc2nc(n1)NS(=O)(=O)c1cccc(c1)C(=O)N(Cc1ncc(N3CC4CC4C3)cn1)[C@H](CC(C)(C)C)CO2 (stereo partly drawn) [Compound 717] | 1 to 3 µM | > 60% | – |
| COC1CCN(c2cnc(CN3C(=O)c4cccc(c4)S(=O)(=O)Nc4nc(cc(-c5c(C)cccc5C)n4)OC[C@H]3CC(C)(C)C)nc2)CC1 [Compound 718] | < 1 µM | > 60% | – |
| Cc1cccc(C)c1-c1cc2nc(n1)NS(=O)(=O)c1cccc(c1)C(=O)N(Cc1ncc(N3CCC(C)CC3)cn1)[C@H](CC(C)(C)C)CO2 [Compound 719] | < 1 µM | > 60% | – |
| CCOc1cnc(CN2C(=O)c3cccc(c3)S(=O)(=O)Nc3nc(cc(-c4c(C)cccc4C)n3)OC[C@H]2CC(C)(C)C)nc1 [Compound 720] | < 1 µM | > 60% | – |
| Cc1cccc(C)c1-c1cc2nc(n1)NS(=O)(=O)c1cccc(c1)C(=O)N(Cc1cccc(N3CCC(C)(O)CC3)n1)[C@H](CC(C)(C)C)CO2 [Compound 721] | < 1 µM | > 60% | – |
| COC1CCN(c2cccc(CN3C(=O)c4cccc(c4)S(=O)(=O)Nc4nc(cc(-c5c(C)cccc5C)n4)OC[C@H]3CC(C)(C)C)n2)CC1 [Compound 722] | < 1 µM | > 60% | – |
| Cc1cccc(C)c1-c1cc2nc(n1)NS(=O)(=O)c1cccc(c1)C(=O)N(CC1CN(C(=O)OC(C)(C)C)CCO1)[C@H](CC(C)(C)C)CO2 (stereo partly drawn) [Compound 723] | < 1 µM | > 60% | – |
| Cc1cccc(C)c1-c1cc2nc(n1)NS(=O)(=O)c1cccc(c1)C(=O)N(Cc1ncccc1NCC(C)(C)C)[C@H](CC(C)(C)C)CO2 [Compound 724] | < 1 µM | > 60% | – |
| Cc1cccc(C)c1-c1cc2nc(n1)NS(=O)(=O)c1cccc(c1)C(=O)N(Cc1ncccc1N(C)CC(C)(C)C)[C@H](CC(C)(C)C)CO2 [Compound 725] | < 1 µM | > 60% | – |
| Cc1cccc(C)c1-c1cc2nc(n1)NS(=O)(=O)c1cccc(c1)C(=O)N(Cc1cccc(C3CCC(C)(C)CC3)n1)[C@H](CC(C)(C)C)CO2 [Compound 727] | < 1 µM | > 60% | – |
| Cc1cccc(C)c1-c1cc2nc(n1)NS(=O)(=O)c1cccc(c1)C(=O)N(Cc1cccc(C3CCOCC3)n1)[C@H](CC(C)(C)C)CO2 [Compound 728] | < 1 µM | > 60% | – |
| Cc1cccc(C)c1-c1cc2nc(n1)NS(=O)(=O)c1cccc(c1)C(=O)N(Cc1cccc(C(C)C)n1)[C@H](CC(C)(C)C)CO2 [Compound 729] | < 1 µM | > 60% | – |
| CCc1cccc(CN2C(=O)c3cccc(c3)S(=O)(=O)Nc3nc(cc(-c4c(C)cccc4C)n3)OC[C@H]2CC(C)(C)C)n1 [Compound 730] | < 1 µM | > 60% | – |
| Cc1cccc(C)c1-c1cc2nc(n1)NS(=O)(=O)c1cccc(c1)C(=O)N(Cc1cccc(C(C)(C)C)n1)[C@H](CC(C)(C)C)CO2 [Compound 731] | < 1 µM | > 60% | – |
| Cc1cccc(C)c1-c1cc2nc(n1)NS(=O)(=O)c1cccc(c1)C(=O)N(Cc1cccc(-n3cc(C(C)(C)C)cn3)n1)[C@H](CC(C)(C)C)CO2 [Compound 732] | < 1 µM | > 60% | – |
| Cc1cccc(C)c1-c1cc2nc(n1)NS(=O)(=O)c1cccc(c1)C(=O)N(Cc1cccc(C3=CCOCC3)n1)[C@H](CC(C)(C)C)CO2 [Compound 733] | < 1 µM | > 60% | activation at 10 µM [2]: > 60% |
| Cc1cccc(C)c1-c1cc2nc(n1)NS(=O)(=O)c1cccc(c1)C(=O)N(Cc1cccc(C3=CCC(C)(C)CC3)n1)[C@H](CC(C)(C)C)CO2 [Compound 734] | – | – | activation at 10 µM [2]: > 60% |
| C=C(C)c1cccc(CN2C(=O)c3cccc(c3)S(=O)(=O)Nc3nc(cc(-c4c(C)cccc4C)n3)OC[C@H]2CC(C)(C)C)n1 [Compound 735] | < 1 µM | > 60% | activation at 10 µM [2]: > 60% |

| SMILES | EC50 (Table 11) | Emax [1] | other results |
| --- | --- | --- | --- |
| Cc1cccc(C)c1-c1cc2nc(n1)NS(=O)(=O)c1cccc(c1)C(=O)N(Cc1cccc(NC(C)C)n1)[C@H](CC(C)(C)C)CO2 [Compound 736] | < 1 µM | > 60% | – |
| Cc1cccc(C)c1-c1cc2nc(n1)NS(=O)(=O)c1cccc(c1)C(=O)N(Cc1cccc(N(C)C(C)C)n1)[C@H](CC(C)(C)C)CO2 [Compound 737] | < 1 µM | > 60% | – |
| CCNc1cccc(CN2C(=O)c3cccc(c3)S(=O)(=O)Nc3nc(cc(-c4c(C)cccc4C)n3)OC[C@H]2CC(C)(C)C)n1 [Compound 738] | < 1 µM | > 60% | – |
| Cc1cccc(C)c1-c1cc2nc(n1)NS(=O)(=O)c1cccc(c1)C(=O)N(Cc1cccc(NC(C)(C)C)n1)[C@H](CC(C)(C)C)CO2 [Compound 739] | < 1 µM | > 60% | – |
| Cc1cccc(C)c1-c1cc2nc(n1)NS(=O)(=O)c1cccc(c1)C(=O)N(Cc1ncccc1OC(C)C)[C@H](CC(C)(C)C)CO2 [Compound 741] | < 1 µM | > 60% | – |
| CCOc1cccnc1CN1C(=O)c2cccc(c2)S(=O)(=O)Nc2nc(cc(-c3c(C)cccc3C)n2)OC[C@H]1CC(C)(C)C [Compound 742] | < 1 µM | > 60% | – |
| Cc1cccc(C)c1-c1cc2nc(n1)NS(=O)(=O)c1cccc(c1)C(=O)N(Cc1cc3ccccn3n1)[C@H](CC(C)(C)C)CO2 [Compound 743] | – | – | activation at 10 µM [2]: < 30% |
| Cc1cccc(C)c1-c1cc2nc(n1)NS(=O)(=O)c1cccc(c1)C(=O)N(Cc1ccc(OC(C)C)cn1)[C@H](CC(C)(C)C)CO2 [Compound 744] | < 1 µM | > 60% | – |
| CCOc1ccc(CN2C(=O)c3cccc(c3)S(=O)(=O)Nc3nc(cc(-c4c(C)cccc4C)n3)OC[C@H]2CC(C)(C)C)nc1 [Compound 745] | < 1 µM | > 60% | – |
| Cc1cccc(C)c1-c1cc2nc(n1)NS(=O)(=O)c1cccc(c1)C(=O)N(Cc1ccc(OCCC(C)(C)C)cn1)[C@H](CC(C)(C)C)CO2 [Compound 746] | – | – | activation at 10 µM [2]: > 60% |
| Cc1cccc(C)c1-c1cc2nc(n1)NS(=O)(=O)c1cccc(c1)C(=O)N(Cc1ccc(OCC(C)C)cn1)[C@H](CC(C)(C)C)CO2 [Compound 747] | – | – | activation at 10 µM [2]: > 60% |
| Cc1cccc(C)c1-c1cc2nc(n1)NS(=O)(=O)c1cccc(c1)C(=O)N(Cc1ncc(N3CCCCC3)cn1)[C@H](CC(C)(C)C)CO2 [Compound 748] | < 1 µM | > 60% | activation at 10 µM [2]: > 60% |
| Cc1cccc(C)c1-c1cc2nc(n1)NS(=O)(=O)c1cccc(c1)C1Oc3ccc4ncccc4c3CN1[C@H](CC(C)(C)C)CO2 (stereo partly drawn) [Compound 750] | – | – | activation at 10 µM [3]: > 60% |
| Cc1cccc(C)c1-c1cc2nc(n1)NS(=O)(=O)c1cccc(c1)C1Oc3ccc4cccnc4c3CN1[C@H](CC(C)(C)C)CO2 (stereo partly drawn) [Compound 751] | – | – | activation at 10 µM [3]: > 60% |
| Cc1cccc(C)c1-c1cc2nc(n1)NS(=O)(=O)c1cccc(c1)C1Oc3cnc4ccccc4c3CN1[C@H](CC(C)(C)C)CO2 (stereo partly drawn) [Compound 752] | – | – | activation at 10 µM [3]: < 300% |
| Cc1cccc(C)c1-c1cc2nc(n1)NS(=O)(=O)c1cccc(c1)C1Oc3ncc4ccccc4c3CN1[C@H](CC(C)(C)C)CO2 (stereo partly drawn) [Compound 753] | – | – | activation at 10 µM [3]: 30 to 60% |
| COc1ccc2nc3c(cc2c1)CN1C(O3)c2cccc(c2)S(=O)(=O)Nc2nc(cc(-c3c(C)cccc3C)n2)OC[C@H]1CC(C)(C)C (stereo partly drawn) [Compound 754] | – | – | activation at 10 µM [3]: > 60% |
| Cc1cccc(C)c1-c1cc2nc(n1)NS(=O)(=O)c1cccc(c1)C1Oc3nc4ccccc4cc3CN1[C@H](CC(C)(C)C)CO2 (stereo partly drawn) [Compound 755] | – | – | activation at 10 µM [3]: > 60% |
| Cc1cccc(C)c1-c1cc2nc(n1)NS(=O)(=O)c1cccc(c1)C(=O)N(Cc1cc3c(cn1)OCCO3)[C@H](CC(C)(C)C)CO2 [Compound 758] | – | – | activation at 10 µM [2]: > 60% |
| Cc1cccc(C)c1-c1nc2nc(c1C)OC[C@@H](CC(C)(C)C)N1Cc3cc(F)c(O)c(F)c3OC1c1cccc(c1)S(=O)(=O)N2 (stereo partly drawn) [Compound 763] | – | – | activation at 10 µM [3]: > 60% |
| Cc1cccc(C)c1-c1cc2nc(n1)NS(=O)(=O)c1cccc(c1)C(=O)N(Cc1nccc3ccccc13)[C@H](CC(C)(C)C)CO2 [Compound 767] | – | – | EC50 (Table 10): < 1 µM; Emax [4]: > 60% |
| Cc1cccc(C)c1-c1cc2nc(n1)NS(=O)(=O)c1cccc(c1)C(=O)N(Cc1ccc(OCC(C)(C)C)cn1)[C@H](CC(C)(C)C)CO2 [Compound 768] | – | – | EC50 (Table 10): 1 to 3 µM; Emax [4]: > 60% |
| COc1c(F)cc(CN2C(=O)c3cccc(c3)S(=O)(=O)Nc3nc(cc(-c4c(C)cccc4C)n3)OC[C@H]2CC(C)(C)C)cc1F [Compound 769] | – | – | activation at 10 µM [3]: > 60% |
